{
  "source": "paper PMC1971528",
  "about": "“Pharmacokinetic studies with the antifolate C2-desamino-C2-methyl-N10-propargyl-2'-trifluoromethyl-5,8-dideazafolic acid (CB3988) in mice and rats using in vivo 19F-NMR spectroscopy” (British Journal of Cancer, 1990)",
  "key": {"[1]": {"parameters": "method as in Alison et al., 1985; Newell et al., 1986", "settings": "patients; ref Alison et al., 1985; Newell et al., 1986; cited from earlier work"}, "[2]": {"settings": "qualitative statement, no reference given; cited from earlier work"}, "[3]": {"settings": "mice, ref Newell et al., cited from earlier work"}, "[4]": {"settings": "mice, 1986, cited from earlier work"}, "[5]": {"settings": "cited from earlier work"}, "[6]": {"parameters": "method as in Newell et al., 1988", "settings": "experimental systems; ref Newell et al., 1988; cited from earlier work"}, "[7]": {"assay": "In vivo 19F-NMR spectroscopy of CB3988 in mice", "settings": "500 mg kg-1 i.v.", "excerpt": "(§1) Br. J. Cancer (1990), 62, 766 772 ? Macmillan Press Ltd., 1990 Pharmacokinetic studies with the antifolate C2-desamino-C2-methyl-N10-propargyl-2'-trifluoromethyl-5,8-dideazafolic acid (CB3988) in mice and rats using in vivo '9F-NMR spectroscopy D.R. Newell', R.J. Maxwell2, G.M.F. Bisset', D.I. Jodrell' & J.R. Griffiths2 'Drug Development Section, Institute of Cancer Research, Sutton, Surrey SM2 SNG; and 2CRC Biomedical NMR Group, St George's Hospital Medical School, Tooting, London SW] 7 ORE, UK. Summary In vivo '9F-NMR spectroscopy has been used to study the pharmacokinetics of the experimental antifolate drug CB3988 (C2-desamino-C2-methyl-N'0-propargyl-2'trifluoromethyl-5,8-dideazafolic acid) in mice and rats. NMR results have been compared to those obtained by HPLC and the effect of the inclusion of the CF3 group evaluated by comparing the pharmacokinetics of CB3988 and ICI 198583 (C2-desamino-C2-methyl- N'?-propargyl-5,8-dideazafolic acid) in rats. In mice, following the administration of CB3988 (500 mg kg-' i.v.), drug could be detected in both the upper and the lower abdomen. […] Signal detected in the lower abdomen reached maximum intensity 60-90 min after treatment. […] When the pharmacokinetics of CB3988 and ICI 198583 were compared the only significant difference was in the alpha phase half life which was 2-fold faster for CB3988. […] This is in contrast to N'?-propargyl-5,8-dideazafolic acid, where delayed excretion is associated with hepatic and renal toxicities. The ability to study CB3988 pharmacokinetics non-invasively by '9F-NMR spectroscopy confirms the utility of the technique and, since '9F-NMR can be applied directly to clinical investigations, it may be possible to obtain similar information in humans. It is now accepted that pharmacokinetics are an important determinant of both the activity and toxicity of anticancer drugs (Newell, 1989). This acceptance has led to the inclusion of pharmacokinetic studies in both the preclinical and early clinical evaluation of the majority of novel antitumour agents with two broad aims in mind. Firstly, the studies may be of direct clinical relevance in determining dose escalation during phase I studies (Collins et al., 1986; EORTC PAM Group, 1987) and secondly the information gained may be of value in interpreting both the toxicity and activity of the com- pound. This latter information can in turn be used to develop either new drugs or drug schedules which maximise the therapeutic potential of the agent. In order to conduct pharmacokinetic studies it is necessary to have a method which can accurately and selectively measure levels of the drug and its metabolites in biological fluids and tissues. Ideally the method should allow studies on drug levels in tumour deposits and in sensitive normal tissues since these are more likely to correlate with activity and toxicity than are levels in plasma or urine. In the preclinical setting such measurements are usually performed using radio- chemicals and either autoradiographic or quantitative tissue distribution studies (Siddik & Newell, 1988). However, in patients ethical and clinical considerations restrict the use of radioactive tracers and routine sampling of tumour or nor- mal tissue is not practicable. […] Using physiological pharmaco- kinetic modelling it is possible to extract some tissue distribu- tion information from such data although there is always considerable uncertainty attached to the results because of interpatient variation. […]"}, "[8]": {"assay": "Quantitative tissue distribution of CB3988 in mice by HPLC", "type": "in vivo", "settings": "500 mg kg-1 i.v.", "excerpt": "Br. J. Cancer (1990), 62, 766 772 ? Macmillan Press Ltd., 1990 Pharmacokinetic studies with the antifolate C2-desamino-C2-methyl-N10-propargyl-2'-trifluoromethyl-5,8-dideazafolic acid (CB3988) in mice and rats using in vivo '9F-NMR spectroscopy D.R. Newell', R.J. Maxwell2, G.M.F. Bisset', D.I. Jodrell' & J.R. Griffiths2 'Drug Development Section, Institute of Cancer Research, Sutton, Surrey SM2 SNG; and 2CRC Biomedical NMR Group, St George's Hospital Medical School, Tooting, London SW] 7 ORE, UK. Summary In vivo '9F-NMR spectroscopy has been used to study the pharmacokinetics of the experimental antifolate drug CB3988 (C2-desamino-C2-methyl-N'0-propargyl-2'trifluoromethyl-5,8-dideazafolic acid) in mice and rats. NMR results have been compared to those obtained by HPLC and the effect of the inclusion of the CF3 group evaluated by comparing the pharmacokinetics of CB3988 and ICI 198583 (C2-desamino-C2-methyl- N'?-propargyl-5,8-dideazafolic acid) in rats. In mice, following the administration of CB3988 (500 mg kg-' i.v.), drug could be detected in both the upper and the lower abdomen. […] Signal detected in the lower abdomen reached maximum intensity 60-90 min after treatment. […] When the pharmacokinetics of CB3988 and ICI 198583 were compared the only significant difference was in the alpha phase half life which was 2-fold faster for CB3988. […] This is in contrast to N'?-propargyl-5,8-dideazafolic acid, where delayed excretion is associated with hepatic and renal toxicities. The ability to study CB3988 pharmacokinetics non-invasively by '9F-NMR spectroscopy confirms the utility of the technique and, since '9F-NMR can be applied directly to clinical investigations, it may be possible to obtain similar information in humans. It is now accepted that pharmacokinetics are an important determinant of both the activity and toxicity of anticancer drugs (Newell, 1989). This acceptance has led to the inclusion of pharmacokinetic studies in both the preclinical and early clinical evaluation of the majority of novel antitumour agents with two broad aims in mind. Firstly, the studies may be of direct clinical relevance in determining dose escalation during phase I studies (Collins et al., 1986; EORTC PAM Group, 1987) and secondly the information gained may be of value in interpreting both the toxicity and activity of the com- pound. This latter information can in turn be used to develop either new drugs or drug schedules which maximise the therapeutic potential of the agent. […] In the preclinical setting such measurements are usually performed using radio- chemicals and either autoradiographic or quantitative tissue distribution studies (Siddik & Newell, 1988). […]"}, "[9]": {"assay": "In vivo 19F-NMR spectroscopy of CB3988 in rats", "settings": "100 mg kg-1 i.v.", "excerpt": "as §1"}, "[10]": {"assay": "Plasma pharmacokinetics and biliary/urinary excretion in rats by HPLC", "type": "in vivo", "settings": "100 mg kg-1 i.v., CB3988 vs ICI 198583", "excerpt": "(§2) Br. J. Cancer (1990), 62, 766 772 ? Macmillan Press Ltd., 1990 Pharmacokinetic studies with the antifolate C2-desamino-C2-methyl-N10-propargyl-2'-trifluoromethyl-5,8-dideazafolic acid (CB3988) in mice and rats using in vivo '9F-NMR spectroscopy D.R. Newell', R.J. Maxwell2, G.M.F. Bisset', D.I. Jodrell' & J.R. Griffiths2 'Drug Development Section, Institute of Cancer Research, Sutton, Surrey SM2 SNG; and 2CRC Biomedical NMR Group, St George's Hospital Medical School, Tooting, London SW] 7 ORE, UK. Summary In vivo '9F-NMR spectroscopy has been used to study the pharmacokinetics of the experimental antifolate drug CB3988 (C2-desamino-C2-methyl-N'0-propargyl-2'trifluoromethyl-5,8-dideazafolic acid) in mice and rats. NMR results have been compared to those obtained by HPLC and the effect of the inclusion of the CF3 group evaluated by comparing the pharmacokinetics of CB3988 and ICI 198583 (C2-desamino-C2-methyl- N'?-propargyl-5,8-dideazafolic acid) in rats. In mice, following the administration of CB3988 (500 mg kg-' i.v.), drug could be detected in both the upper and the lower abdomen. […] Signal detected in the lower abdomen reached maximum intensity 60-90 min after treatment. […] In the preclinical setting such measurements are usually performed using radio- chemicals and either autoradiographic or quantitative tissue distribution studies (Siddik & Newell, 1988). […]"}, "Acute toxicity in mice": {"assay": "Acute toxicity in mice", "type": "in vivo", "settings": "500 mg kg-1 i.v.", "excerpt": "as §2"}, "Acute toxicity in rats": {"assay": "Acute toxicity in rats", "type": "in vivo", "settings": "100 mg kg-1 i.v.", "excerpt": "as §2"}, "thymidylate synthase": {"test_system": "thymidylate synthase", "parameters": "method as in A.L. Jackman, unpublished results", "settings": "ref A.L. Jackman, unpublished results; cited from earlier work"}, "[11]": {"settings": "upper abdomen, cannulated and bile duct-intact"}},
  "note": "Where two headings read alike, the source gives them in different places.",
  "data": [
    {"smiles": "C#CCN(Cc1ccc2nc(N)[nH]c(=O)c2c1)c1ccc(C(=O)N[C@@H](CCC(=O)O)C(=O)O)cc1", "note": "[CB3717, N10-propargyl-5,8-dideazafolic acid]", "values": [
      {"measurement": "nephrotoxicity", "setting": "[1]", "value": "nephrotoxic"},
      {"measurement": "aqueous solubility", "setting": "[2]", "value": "poor solubility"},
      {"measurement": "urinary excretion and persistence in kidney", "setting": "[3]; 1986", "value": "delayed urinary excretion and drug still present in the kidney weeks after administration"},
      {"measurement": "nephrotoxicity", "setting": "[4]; ref Alison et al., 1985, Newell et al.", "value": "nephrotoxic"},
      {"measurement": "hepatotoxicity", "setting": "[4]; ref Newell et al.", "value": "hepatotoxic"}
    ]},
    {"smiles": "C#CCN(Cc1ccc2nc(C)[nH]c(=O)c2c1)c1ccc(C(=O)N[C@@H](CCC(=O)O)C(=O)O)cc1", "note": "[ICI 198583, C2-desamino-C2-methyl-N10-propargyl-5,8-dideazafolic acid]", "values": [
      {"measurement": "potency in cytotoxicity studies relative to CB3717", "setting": "[5]; ref Hughes et al., 1988, Jackman et al.", "value": "markedly more potent than CB3717"},
      {"measurement": "aqueous solubility", "setting": "[2]", "value": "greatly enhanced aqueous solubility compared to CB3717"},
      {"measurement": "retention in liver and kidney", "setting": "[3]; 1988", "value": "not retained in either the liver or the kidney"},
      {"measurement": "acute liver and kidney toxicity", "setting": "[6]", "value": "devoid of acute liver and kidney toxicity"}
    ]},
    {"smiles": "C#CCN(Cc1ccc2nc(C)[nH]c(=O)c2c1)c1ccc(C(=O)N[C@@H](CCC(=O)O)C(=O)O)c(C(F)(F)F)c1", "note": "[CB3988, C2-desamino-C2-methyl-N10-propargyl-2'trifluoromethyl-5,8-dideazafolic acid]", "values": [
      {"measurement": "time by which urinary excretion is essentially complete", "setting": "[7]; NMR signal in bladder", "value": "≤ 1", "unit": "h"},
      {"measurement": "time at which NMR signal in the lower abdomen reached maximum intensity", "setting": "[7]; lower abdomen", "value": "60 to 90", "unit": "min"},
      {"measurement": "metabolites (additional peaks) in NMR spectrum", "setting": "[7]; upper abdomen", "value": "No clear evidence of the presence of additional peaks"},
      {"measurement": "time at which NMR signal from the upper abdomen reached maximum intensity", "setting": "[7]; upper abdomen", "value": "10 to 40", "unit": "min"},
      {"measurement": "half-life", "setting": "[7]; mouse, upper abdomen (in vivo NMR signal), iv, analysis period 40-120 min, mean ± s.d. of three mice, read-out: half life for the decline of NMR signal from the upper abdomen (overall mean)", "value": 28, "unit": "min"},
      {"measurement": "CB3988 concentration in bile and urine, molar", "setting": "[8]", "value": "40 to 60", "unit": "mM"},
      {"measurement": "CB3988 concentration in liver and small intestines", "setting": "[8]; 30 and 60 min", "value": "> 1", "unit": "mg g-1 wet weight"},
      {"measurement": "CB3988 concentration in bile and urine (gall bladder and urinary bladder)", "setting": "[8]; 30 and 60 min, HPLC", "value": "20 to 30", "unit": "mg/mL"},
      {"measurement": "Conc. large intestine", "setting": "[8]; 60 min, large intestine (ND)", "value": "< 0.02", "unit": "mg g-1 wet weight"},
      {"measurement": "metabolites in NMR spectra", "setting": "[9]; intact and cannulated bile ducts", "value": "no metabolites being detected"},
      {"measurement": "time by which NMR signal reached the limit of detection", "setting": "[9]; upper abdomen, bile duct cannulated", "value": "15 to 20", "unit": "min"},
      {"measurement": "time after bolus dose at which NMR signal was detected", "setting": "[9]; [11]", "value": "up to 2 min"},
      {"measurement": "time by which NMR signal intensity reached a maximum value", "setting": "[9]; [11]", "value": "≤ 10", "unit": "min"},
      {"measurement": "half-life", "setting": "[9]; rat, iv, upper abdomen, three bile duct cannulated rats, read-out: half-life for the decline in the NMR signal, individual rats", "value": 5.6, "unit": "min"},
      {"measurement": "alpha phase half life, fold faster than ICI 198583", "setting": "[10]", "value": 2, "unit": "fold"},
      {"measurement": "acute toxicity", "setting": "Acute toxicity in mice", "value": "no acute toxicity"},
      {"measurement": "acute toxicity", "setting": "Acute toxicity in rats", "value": "no acute toxicity"},
      {"measurement": "reduction of inhibitory activity towards thymidylate synthase in comparison to ICI 198583", "setting": "thymidylate synthase", "value": 7, "unit": "fold"},
      {"measurement": "reduction of cytotoxicity in comparison to ICI 198583", "setting": "[5]; ref A.L. Jackman, unpublished results", "value": 14, "unit": "fold"}
    ]}
  ]
}
